We go through one compound from US20090005253A1, “Double Hybrid System Based on Gene Silencing by Transcriptional Interference” (AVENTIS PHARMA S.A., priority 2004, published 2009).

The experiment concerns Fe65/App interaction. Briefly: growth restoration test on solid medium, yRB49 (rY2H UI interference system) expressing the Fe65/App interaction. As to conditions: medium free of histidine, 1 mM 3-AT; 1 μl at 0.125%, 0.25%, 0.5% or 1% at center of dish; 30° C., 48 hours. The class given is cell-based. Here is the method:
The strain containing the UI transcriptional interference system (yRB49) and cotransformed with the plasmids pRB34 and pRB35 (Fe65/App interaction) was plated out onto medium without histidine and containing 1 mM of 3-AT. […] The dishes were incubated at 30° C. for 48 hours.
The strain containing the UI transcriptional interference system (yRB49) was cotransformed with the pairs of plasmids pRB34 and pRB35 (Fe65/App interaction) or pDBT-mdm2 and pVP16-p53Nt (mdm2/p53 interaction). The strain containing the plasmids pRB34 and pRB35 (Fe65/App interaction) was plated out onto 5 dishes of medium without histidine supplemented with 1 mM of 3-AT (top row); the strain containing the plasmids pDBT-mdm2 and pVP16-p53Nt (mdm2/p53 interaction) was similarly plated out onto 5 dishes of medium without histidine supplemented with 20 mM of 3-AT (bottom row).
A control dish was prepared for each interaction by depositing 1 μl of histidine at 0.125% w/v at the center of this dish. A different molecule, A, B, C or D, was deposited onto each of the other 4 dishes, according to the following scheme: in the upper left corner, 1 μl of the product at a concentration of 0.1 mM is deposited; in the upper right corner, 1 μl of the same product at a concentration of 1 mM is deposited; at the center, 1 μl of this product at 10 mM is deposited. […]

With `N[C@@H](Cc1c[nH]cn1)C(=O)O` [histidine], the “restoration of growth around the deposit by nutrient (FIG. 8C)” value is on record as “capable of restoring the growth”.
